Test results reported in patent US20250059185A1 (Hoffmann-La Roche Inc., priority 2021, published 2025).

Molecular target: MAGL (Homo sapiens (Human), UniProt Q99685)
Assay: 2-AG assay (MAGL inhibitory activity, hydrolysis of 2-arachidonoylglycerol followed by mass spectrometry)
Type: biochemical
Settings: 50 pM MAGL protein, 15 min pre-incubation, 30 min incubation at RT
Description: Compounds of formula (II) were profiled for MAGL inhibitory activity by determining the enzymatic activity by following the hydrolysis of the natural substrate 2-arachidonoylglycerol (2-AG) resulting in arachidonic acid, which can be followed by mass spectrometry. This assay is hereinafter abbreviated “2-AG assay”.
Compounds of formula (II) were profiled for MAGL inhibitory activity by determining the enzymatic activity by following the hydrolysis of the natural substrate 2-arachidonoylglycerol (2-AG) resulting in arachidonic acid, which can be followed by mass spectrometry. This assay is hereinafter abbreviated “2-AG assay”. The 2-AG assay was carried out in 384 well polypropylene assay plates. Compound dilutions were made in 100% DMSO in a polypropylene plate in 3-fold dilution steps to give a final concentration range in the assay from 12.5 μM to 0.8 pM. Compound dilutions were added to MAGL protein in assay buffer (50 mM TRIS, 1 mM EDTA, 0.01% (v/v) Tween-20, 2.5% (v/v) DMSO). After shaking, the plate was incubated for 15 min at RT. To start the reaction, 2-arachidonoylglycerol in assay buffer was added. The final concentrations in the assay was 50 pM for MAGL protein and […] 2-arachidonoylglyerol. After shaking and 30 min incubation at RT, the reaction was quenched by the addition of two assay volumes of acetonitrile containing 4 μM of d8-arachidonic acid. The amount of arachidonic acid formed was traced by an online SPE system (Agilent Rapidfire) coupled to a triple quadrupole mass spectrometer. A C18 SPE cartridge (Agilent G9205A) was used in an acetonitrile/water liquid setup. The mass spectrometer was operated in negative electrospray mode following the mass transitions 303.1→259.1 for arachidonic acid and 311.1→267.0 for d8-arachidonic acid. The activity of the compounds was calculated based on the ratio of intensities [arachidonic acid/d8-arachidonic acid].

Sequence of MAGL (Q99685 whole entry, species assumed): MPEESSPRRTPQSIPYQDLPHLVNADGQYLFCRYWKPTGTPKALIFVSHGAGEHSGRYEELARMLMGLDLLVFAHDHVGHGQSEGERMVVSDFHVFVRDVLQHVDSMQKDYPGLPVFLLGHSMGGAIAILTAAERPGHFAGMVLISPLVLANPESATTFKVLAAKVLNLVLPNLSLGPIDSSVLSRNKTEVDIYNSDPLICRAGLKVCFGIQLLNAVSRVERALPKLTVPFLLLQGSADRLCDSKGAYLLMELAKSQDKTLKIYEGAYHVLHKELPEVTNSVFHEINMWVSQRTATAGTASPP

Row | Structure (SMILES) | IC50
1 | COc1cccc(C(=O)N2CCc3c(nn(C)c3CNC3(C(F)(F)F)CC3)[C@@H]2C)c1Cl [Example 11, (2-Chloro-3-methoxy-phenyl)-[(7S)-2,7-dimethyl-3-[[[1-(trifluoromethyl)cyclopropyl]amino]methyl]-5,7-dihydro-4H-pyrazolo[3,4-c]pyridin-6-yl]methanone] | 464 nM
2 | COc1cccc(C(=O)N2CCc3c(nn(C)c3-c3nnc(C(F)(F)F)o3)[C@@H]2C)c1Cl [Example 12, (2-Chloro-3-methoxy-phenyl)-[(7S)-2,7-dimethyl-3-[5-(trifluoromethyl)-1,3,4-oxadiazol-2-yl]-5,7-dihydro-4H-pyrazolo[3,4-c]pyridin-6-yl]methanone] | 390 nM
3 | COc1cccc(C(=O)N2CCc3c(nn(C)c3-c3cccc(O)n3)[C@@H]2C)c1Cl [Example 13, (2-Chloro-3-methoxy-phenyl)-[(7S)-3-(6-hydroxy-2-pyridyl)-2,7-dimethyl-5,7-dihydro-4H-pyrazolo[3,4-c]pyridin-6-yl]methanone] | 622 nM
4 | COc1cccc(C(=O)N2CCc3c(nn(C)c3-c3cc(Cl)cc(CC(N)=O)c3)[C@@H]2C)c1Cl [Example 14, 2-[3-Chloro-5-[(7S)-6-(2-chloro-3-methoxy-benzoyl)-2,7-dimethyl-5,7-dihydro-4H-pyrazolo[3,4-c]pyridin-3-yl]phenyl]acetamide] | 41 nM
5 | COc1cccc(C(=O)N2CCc3c(nn(C)c3-c3cc(Cl)cc(C4(C(N)=O)CC4)c3)[C@@H]2C)c1Cl [Example 16, 1-[3-Chloro-5-[(7S)-6-(2-chloro-3-methoxy-benzoyl)-2,7-dimethyl-5,7-dihydro-4H-pyrazolo[3,4-c]pyridin-3-yl]phenyl]cyclopropanecarboxamide] | 101 nM
6 | COc1cccc(C(=O)N2CCc3c(nn(C)c3-c3cc(F)cc(CC(N)=O)c3)[C@@H]2C)c1Cl [Example 17, 2-[3-[(7S)-6-(2-Chloro-3-methoxy-benzoyl)-2,7-dimethyl-5,7-dihydro-4H-pyrazolo[3,4-c]pyridin-3-yl]-5-fluoro-phenyl]acetamide] | 188 nM
7 | COc1cccc(C(=O)N2CCc3c(nn(C)c3-c3cncc(CC(N)=O)c3)[C@@H]2C)c1Cl [Example 18, 2-[5-[(7S)-6-(2-Chloro-3-methoxy-benzoyl)-2,7-dimethyl-5,7-dihydro-4H-pyrazolo[3,4-c]pyridin-3-yl]-3-pyridyl]acetamide] | 3080 nM
8 | CC1c2nn(C)c(-c3cc(F)cc(F)c3)c2CCN1C(=O)c1cc(F)cc(N2CC3(C2)CS(=O)(=O)C3)c1Cl (stereo not drawn) [Example 19, [2-Chloro-3-(2,2-dioxo-2λ^6-thia-6-azaspiro[3.3]heptan-6-yl)-5-fluoro-phenyl]-[3-(3,5-difluorophenyl)-2,7-dimethyl-5,7-dihydro-4H-pyrazolo[3,4-c]pyridine-6-yl]methanone] | 41 nM
9 | C[C@H]1c2nn(C)c(-c3cc(F)cc(F)c3)c2CCN1C(=O)c1cc(F)cc(N2CC3(C2)CS(=O)(=O)C3)c1Cl [Example 20, [2-Chloro-3-(2,2-dioxo-2λ^6-thia-6-azaspiro[3.3]heptan-6-yl)-5-fluoro-phenyl]-[(7S)-3-(3,5-difluorophenyl)-2,7-dimethyl-5,7-dihydro-4H-pyrazolo[3,4-c]pyridine-6-yl]methanone] | 27 nM
10 | C[C@@H]1c2nn(C)c(-c3cc(F)cc(F)c3)c2CCN1C(=O)c1cc(F)cc(N2CC3(C2)CS(=O)(=O)C3)c1Cl [Example 21, [2-Chloro-3-(2,2-dioxo-2λ^6-thia-6-azaspiro[3.3]heptan-6-yl)-5-fluoro-phenyl]-[(7R)-3-(3,5-difluorophenyl)-2,7-dimethyl-5,7-dihydro-4H-pyrazolo[3,4-c]pyridine-6-yl]methanone] | 1430 nM
11 | CC1c2nn(C)c(-c3cc(F)cc(F)c3)c2CCN1C(=O)c1cc(F)cc(N2CC(S(C)(=O)=O)C2)c1Cl (stereo not drawn) [Example 22, [2-Chloro-5-fluoro-3-(3-methylsulfonylazetidin-1-yl)phenyl]-[3-(3,5-difluorophenyl)-2,7-dimethyl-5,7-dihydro-4H-pyrazolo[3,4-c]pyridin-6-yl]methanone] | 76 nM
12 | C[C@H]1c2nn(C)c(-c3cc(F)cc(F)c3)c2CCN1C(=O)c1cc(F)cc(N2CC(S(C)(=O)=O)C2)c1Cl [Example 23, [2-Chloro-5-fluoro-3-(3-methylsulfonylazetidin-1-yl)phenyl]-[(7S)-3-(3,5-difluorophenyl)-2,7-dimethyl-5,7-dihydro-4H-pyrazolo[3,4-c]pyridin-6-yl]methanone] | 27 nM
13 | CC1c2nn(C)c(-c3cc(F)cc(F)c3)c2CCN1C(=O)c1ccccc1Cn1ccnn1 (stereo not drawn) [Example 24, [3-(3,5-Difluorophenyl)-2,7-dimethyl-5,7-dihydro-4H-pyrazolo[3,4-c]pyridin-6-yl]-[2-(triazol-1-ylmethyl)phenyl]methanone] | 1230 nM
14 | Cc1c(C(=O)N2CCc3c(nn(C)c3-c3cc(F)cc(F)c3)C2C)cccc1N1CCNC1=O (stereo not drawn) [Example 25, 1-[3-[3-(3,5-Difluorophenyl)-2,7-dimethyl-5,7-dihydro-4H-pyrazolo[3,4-c]pyridine-6-carbonyl]-2-methyl-phenyl]imidazolidin-2-one] | 892 nM
15 | CC1c2nn(C)c(-c3cc(F)cc(F)c3)c2CCN1C(=O)c1cc(-c2cccc(C#N)c2)ccc1F (stereo not drawn) [Example 26, 3-[3-[3-(3,5-Difluorophenyl)-2,7-dimethyl-5,7-dihydro-4H-pyrazolo[3,4-c]pyridine-6-carbonyl]-4-fluoro-phenyl]benzonitrile] | 84 nM
16 | CC1c2nn(C)c(-c3cc(F)cc(F)c3)c2CCN1C(=O)c1cc(F)cc(OCC2(C(F)(F)F)CC2)c1Cl (stereo not drawn) [Example 27, [2-Chloro-5-fluoro-3-[[1-(trifluoromethyl)cyclopropyl]methoxy]phenyl]-[3-(3,5-difluorophenyl)-2,7-dimethyl-5,7-dihydro-4H-pyrazolo[3,4-c]pyridin-6-yl]methanone] | 88 nM
17 | CC1c2nn(C)c(-c3cc(F)cc(F)c3)c2CCN1C(=O)c1cc(F)cc(C2=NOC(C)(C)C2)c1Cl (stereo not drawn) [Example 28, [2-Chloro-3-(5,5-dimethyl-4H-isoxazol-3-yl)-5-fluoro-phenyl]-[3-(3,5-difluorophenyl)-2,7-dimethyl-5,7-dihydro-4H-pyrazolo[3,4-c]pyridin-6-yl]methanone] | 385 nM
18 | C[C@H]1c2nn(C)c(-c3cc(F)cc(F)c3)c2CCN1C(=O)c1cc(F)cc(-c2ccc(=O)[nH]c2)c1Cl [Example 29, 5-[2-Chloro-3-[(7S)-3-(3,5-difluorophenyl)-2,7-dimethyl-5,7-dihydro-4H-pyrazolo[3,4-c]pyridine-6-carbonyl]-5-fluoro-phenyl]-1H-pyridin-2-one] | 1 nM
19 | C[C@@H]1c2nn(C)c(-c3cc(F)cc(F)c3)c2CCN1C(=O)c1cc(F)cc(-c2ccc(=O)[nH]c2)c1Cl [Example 30, 5-[2-Chloro-3-[(7R)-3-(3,5-difluorophenyl)-2,7-dimethyl-5,7-dihydro-4H-pyrazolo[3,4-c]pyridine-6-carbonyl]-5-fluoro-phenyl]-1H-pyridin-2-one] | 388 nM
20 | C[C@H]1c2nn(C)c(-c3cc(F)cc(F)c3)c2CCN1C(=O)c1cc(F)cc(-c2cc[nH]c(=O)c2)c1Cl [Example 31, 4-[2-Chloro-3-[(7S)-3-(3,5-difluorophenyl)-2,7-dimethyl-5,7-dihydro-4H-pyrazolo[3,4-c]pyridine-6-carbonyl]-5-fluoro-phenyl]-1H-pyridin-2-one] | 3 nM
21 | C[C@H]1c2nn(C)c(-c3cc(F)cc(F)c3)c2CCN1C(=O)c1ncn(-c2cccnc2O)n1 [Example 32, [(7S)-3-(3,5-Difluorophenyl)-2,7-dimethyl-5,7-dihydro-4H-pyrazolo[3,4-c]pyridin-6-yl]-[1-(2-hydroxy-3-pyridyl)-1,2,4-triazol-3-yl]methanone] | 232 nM
22 | C[C@H]1c2nn(C)c(-c3cc(F)cc(F)c3)c2CCN1C(=O)c1ncn(-c2ccc(O)nc2)n1 [Example 33, [(7S)-3-(3,5-Difluorophenyl)-2,7-dimethyl-5,7-dihydro-4H-pyrazolo[3,4-c]pyridin-6-yl]-[1-(6-hydroxy-3-pyridyl)-1,2,4-triazol-3-yl]methanone] | 163 nM
23 | C[C@H]1c2nn(C)c(-c3cc(F)cc(F)c3)c2CCN1C(=O)c1ncn(-c2cc(F)cnc2O)n1 [Example 34, [(7S)-3-(3,5-Difluorophenyl)-2,7-dimethyl-5,7-dihydro-4H-pyrazolo[3,4-c]pyridin-6-yl]-[1-(5-fluoro-2-hydroxy-3-pyridyl)-1,2,4-triazol-3-yl]methanone] | 149 nM
24 | C[C@H]1c2nn(C)c(-c3cc(F)cc(F)c3)c2CCN1C(=O)c1ncn(-c2cc(Cl)cnc2O)n1 [Example 35, [1-(5-Chloro-2-hydroxy-3-pyridyl)-1,2,4-triazol-3-yl]-[(7S)-3-(3,5-difluorophenyl)-2,7-dimethyl-5,7-dihydro-4H-pyrazolo[3,4-c]pyridin-6-yl]methanone] | 104 nM
